Data: paper PMC8772704, “Quantification of Fosfomycin in Combination with Nine Antibiotics in Human Plasma and Cation-Adjusted Mueller-Hinton II Broth via LCMS” (Antibiotics, 2022)

Key:
[1] = Autosampler stability at 4 °C of extracted antibiotic-spiked plasma/CAMHB samples; conditions: for Mean accuracy (%), Table S8 / Mean accuracy (%), Table S10: CAMHB extracted samples; for Mean accuracy (%), Table S8 / Mean accuracy (%), Table S7: 7 h autosampler 4 °C; for Mean accuracy (%), Table S10 / Mean accuracy (%), Table S9: 15 h autosampler 4 °C; for Mean accuracy (%), Table S7 / Mean accuracy (%), Table S9: plasma extracted samples
Description: (§1) The stability of fosfomycin in combination with other antibiotics in plasma/CAMHB was evaluated under various operational conditions. Spiked plasma/CAMHB samples were evaluated at 7 h and 15 h in the autosampler at 4 °C. Long-term stability was evaluated up to 4 weeks of antibiotic-spiked plasma/CAMHB samples at LQC, MQC, and HQC concentrations stored at −30 °C and −80 °C.

[2] = Long-term storage stability of antibiotics in combination with fosfomycin spiked in plasma/CAMHB (−30 °C, −80 °C); type: physicochemical; conditions: for Mean accuracy (%), Table S15 / Mean accuracy (%), Table S17 / Mean accuracy (%), Table S16 / Mean accuracy (%), Table S18: CAMHB; for Mean accuracy (%), Table S15 / Mean accuracy (%), Table S17 / Mean accuracy (%), Table S16 / Mean accuracy (%), Table S18 / Mean accuracy (%), Table S11 / Mean accuracy (%), Table S13 / Mean accuracy (%), Table S12 / Mean accuracy (%), Table S14: combination with fosfomycin; for Mean accuracy (%), Table S15 / Mean accuracy (%), Table S11: 2 weeks at -30 °C; for Mean accuracy (%), Table S17 / Mean accuracy (%), Table S13: 2 weeks at -80 °C; for Mean accuracy (%), Table S16 / Mean accuracy (%), Table S12: 4 weeks at -30 °C; for Mean accuracy (%), Table S18 / Mean accuracy (%), Table S14: 4 weeks at -80 °C; for Stability verdict (within ±15% of nominal): CAMHB samples stored at −30 °C
Description: as §1

[3] = 32-day stability of stock solutions stored at −80 °C; type: physicochemical; conditions: stock solution stored at -80 °C; peak area Day 32 vs Day 1
Description: Stability of stock solutions
All stock solutions of antibiotics and their corresponding stable-isotope variants were measured prior to cold storage at -80 °C and tested at 32 days later.
Stability was determined by comparing the peak area of each drug between its Day 1 and Day 32 measurement. Acceptable criteria for stability was met if the […]

[4] = HQC: nominal mg/L CAZ 150, FEP 200, PIP 250, ATM 300, MEM 200, DOR 175, LVX 30, CEFT 250, TZB 87.5, TGC 20, AVI 30, FOF 1000
[5] = LQC: nominal 1 mg/L (levofloxacin, avibactam 0.5; fosfomycin 10)
[6] = MQC: nominal mg/L CAZ 75, FEP 100, PIP 150, ATM 150, MEM 100, DOR 87.5, LVX 15, CEFT 125, TZB 43.75, TGC 10, AVI 15, FOF 500

Mean accuracy (%), Table S8 ([1]; HQC (nominal as E15)) [%] | Mean accuracy (%), Table S8 ([1]; LQC (nominal as E13)) [%] | Mean accuracy (%), Table S8 ([1]; MQC (nominal as E14)) [%] | Mean accuracy (%), Table S10 ([1]; HQC (nominal as E15)) [%] | Mean accuracy (%), Table S10 ([1]; LQC (nominal as E13)) [%] | Mean accuracy (%), Table S10 ([1]; MQC (nominal as E14)) [%] | Mean accuracy (%), Table S7 [1, 4] [%] | Mean accuracy (%), Table S7 [1, 5] [%] | Mean accuracy (%), Table S7 [1, 6] [%] | Mean accuracy (%), Table S15 ([2]; HQC (nominal as E15)) [%] | Mean accuracy (%), Table S15 ([2]; LQC (nominal as E13)) [%] | Mean accuracy (%), Table S15 ([2]; MQC (nominal as E14)) [%] | Mean accuracy (%), Table S17 ([2]; HQC (nominal as E15)) [%] | Mean accuracy (%), Table S17 ([2]; LQC (nominal as E13)) [%] | Mean accuracy (%), Table S17 ([2]; MQC (nominal as E14)) [%] | Mean accuracy (%), Table S16 ([2]; HQC (nominal as E15)) [%] | Mean accuracy (%), Table S16 ([2]; LQC (nominal as E13)) [%] | Mean accuracy (%), Table S16 ([2]; MQC (nominal as E14)) [%] | Mean accuracy (%), Table S18 ([2]; HQC (nominal as E15)) [%] | Mean accuracy (%), Table S18 ([2]; LQC (nominal as E13)) [%] | Compound | also measured
113.3 | 106.4 | 109.8 | 112.0 | 107.2 | 111.3 | 105.1 | 106.0 | 97.2 | 93.2 | 91.3 | 94.7 | 94.1 | 91.4 | 94.3 | 90.8 | 86.1 | 90.4 | 93.9 | 87.5 | Cn1c(N)c(NC(=O)NCCN)c[n+]1CC1=C(C(=O)O)N2C(=O)[C@@H](NC(=O)/C(=N\OC(C)(C)C(=O)[O-])c3nsc(N)n3)[C@H]2SC1 [Ceftolozane, ceftolozane] | Mean accuracy (%), Table S9 ([1]; HQC (nominal as E15)): 101.0%; Mean accuracy (%), Table S9 ([1]; LQC (nominal as E13)): 97.5%; Mean accuracy (%), Table S9 ([1]; MQC (nominal as E14)): 90.0%; Mean accuracy (%), Table S18 ([2]; MQC (nominal as E14)): 96.2%; Mean accuracy (%), Table S11 ([2]; plasma, HQC (nominal as E15)): 86.5%; Mean accuracy (%), Table S11 ([2]; plasma, LQC (nominal as E13)): 86.9%; Mean accuracy (%), Table S11 ([2]; plasma, MQC (nominal as E14)): 86.4%; Mean accuracy (%), Table S13 ([2]; plasma, HQC (nominal as E15)): 86.3%; Mean accuracy (%), Table S13 ([2]; plasma, LQC (nominal as E13)): 91.1%; Mean accuracy (%), Table S13 ([2]; plasma, MQC (nominal as E14)): 87.7%; Mean accuracy (%), Table S12 ([2]; plasma, HQC (nominal as E15)): 99.3%; Mean accuracy (%), Table S12 ([2]; plasma, LQC (nominal as E13)): 99.0%; Mean accuracy (%), Table S12 ([2]; plasma, MQC (nominal as E14)): 98.6%; Mean accuracy (%), Table S14 ([2]; plasma, HQC (nominal as E15)): 100.8%; Mean accuracy (%), Table S14 ([2]; plasma, LQC (nominal as E13)): 89.3%; Mean accuracy (%), Table S14 ([2]; plasma, MQC (nominal as E14)): 98.0%; 32 Day Stability (%) [3]: 107.69%
103.1 | 104.8 | 105.2 | 103.0 | 108.0 | 111.3 | 98.9 | 104.0 | 100.7 | 82.4 | 73.1 | 77.1 | 100.1 | 104.0 | 103.9 | 64.1 | 64.6 | 60.6 | 105.8 | 99.1 | C[C@@H](O)[C@H]1C(=O)N2C(C(=O)O)=C(S[C@@H]3CN[C@H](CNS(N)(=O)=O)C3)[C@H](C)[C@H]12 [Doripenem, doripenem] | Stability verdict (within ±15% of nominal) ([2]; 2 weeks): instability; Stability verdict (within ±15% of nominal) ([2]; 4 weeks): instability; Mean accuracy (%), Table S18 ([2]; MQC (nominal as E14)): 104.7%; Mean accuracy (%), Table S11 ([2]; plasma, HQC (nominal as E15)): 98.0%; Mean accuracy (%), Table S11 ([2]; plasma, LQC (nominal as E13)): 91.0%; Mean accuracy (%), Table S11 ([2]; plasma, MQC (nominal as E14)): 97.0%; Mean accuracy (%), Table S13 ([2]; plasma, HQC (nominal as E15)): 98.3%; Mean accuracy (%), Table S13 ([2]; plasma, LQC (nominal as E13)): 100.6%; Mean accuracy (%), Table S13 ([2]; plasma, MQC (nominal as E14)): 96.9%; Mean accuracy (%), Table S12 ([2]; plasma, HQC (nominal as E15)): 102.4%; Mean accuracy (%), Table S12 ([2]; plasma, LQC (nominal as E13)): 100.0%; Mean accuracy (%), Table S12 ([2]; plasma, MQC (nominal as E14)): 103.1%; Mean accuracy (%), Table S14 ([2]; plasma, HQC (nominal as E15)): 106.3%; Mean accuracy (%), Table S14 ([2]; plasma, LQC (nominal as E13)): 99.2%; Mean accuracy (%), Table S14 ([2]; plasma, MQC (nominal as E14)): 106.9%; 32 Day Stability (%) [3]: 99.13%
89.6 | 113.7 | 86.7 | 90.6 | 112.7 | 87.6 | 87.5 | 109.5 | 84.0 | 89.0 | 106.0 | 89.5 | 89.6 | 111.6 | 92.6 | 69.6 | 90.6 | 67.5 | 87.6 | 109.4 | CCN1CCN(C(=O)N[C@@H](C(=O)N[C@@H]2C(=O)N3[C@@H]2SC(C)(C)[C@@H]3C(=O)O)c2ccccc2)C(=O)C1=O [Piperacillin, piperacillin] | Mean accuracy (%), Table S9 ([1]; HQC (nominal as E15)): 89.6%; Mean accuracy (%), Table S9 ([1]; LQC (nominal as E13)): 109.9%; Mean accuracy (%), Table S9 ([1]; MQC (nominal as E14)): 86.8%; Stability verdict (within ±15% of nominal) ([2]; 4 weeks): instability; Mean accuracy (%), Table S18 ([2]; MQC (nominal as E14)): 90.6%; Stability data ([2]; plasma, 2-week and 4-week intervals): 86–88%; Mean accuracy (%), Table S11 ([2]; plasma, HQC (nominal as E15)): 88.5%; Mean accuracy (%), Table S11 ([2]; plasma, LQC (nominal as E13)): 112.6%; Mean accuracy (%), Table S11 ([2]; plasma, MQC (nominal as E14)): 92.7%; Mean accuracy (%), Table S13 ([2]; plasma, HQC (nominal as E15)): 88.6%; Mean accuracy (%), Table S13 ([2]; plasma, LQC (nominal as E13)): 109.5%; Mean accuracy (%), Table S13 ([2]; plasma, MQC (nominal as E14)): 93.0%; Mean accuracy (%), Table S12 ([2]; plasma, LQC (nominal as E13)): 106.0%; Mean accuracy (%), Table S14 ([2]; plasma, LQC (nominal as E13)): 111.6%; 32 Day Stability (%) [3]: 100.48%
103.5 | 100.6 | 103.1 | 103.2 | 101.8 | 100.2 | 110.0 | 106.7 | 112.7 | 87.2 | 98.8 | 87.3 | 102.3 | 98.9 | 106.1 | 91.2 | 87.0 | 100.6 | 91.0 | 87.6 | CN(C)c1cc(NC(=O)CNC(C)(C)C)c(O)c2c1C[C@H]1C[C@H]3[C@H](N(C)C)C(O)=C(C(N)=O)C(=O)[C@@]3(O)C(O)=C1C2=O [Tigecycline, tigecycline] | Mean accuracy (%), Table S9 ([1]; HQC (nominal as E15)): 111.0%; Mean accuracy (%), Table S9 ([1]; LQC (nominal as E13)): 105.1%; Mean accuracy (%), Table S9 ([1]; MQC (nominal as E14)): 106.3%; Mean accuracy (%), Table S18 ([2]; MQC (nominal as E14)): 95.3%; Mean accuracy (%), Table S11 ([2]; plasma, HQC (nominal as E15)): 102.5%; Mean accuracy (%), Table S11 ([2]; plasma, LQC (nominal as E13)): 111.9%; Mean accuracy (%), Table S11 ([2]; plasma, MQC (nominal as E14)): 98.9%; Mean accuracy (%), Table S13 ([2]; plasma, HQC (nominal as E15)): 107.8%; Mean accuracy (%), Table S13 ([2]; plasma, LQC (nominal as E13)): 109.8%; Mean accuracy (%), Table S13 ([2]; plasma, MQC (nominal as E14)): 100.1%; Mean accuracy (%), Table S12 ([2]; plasma, HQC (nominal as E15)): 110.7%; Mean accuracy (%), Table S12 ([2]; plasma, LQC (nominal as E13)): 97.8%; Mean accuracy (%), Table S12 ([2]; plasma, MQC (nominal as E14)): 102.8%; Mean accuracy (%), Table S14 ([2]; plasma, HQC (nominal as E15)): 112.3%; Mean accuracy (%), Table S14 ([2]; plasma, LQC (nominal as E13)): 96.9%; Mean accuracy (%), Table S14 ([2]; plasma, MQC (nominal as E14)): 105.0%; 32 Day Stability (%) [3]: 102.57%
